# Tests used:
# ERK [1] = experiment: ERK KiMBI cell-based bioluminescent assay, HEK293A cells co-transfected with caMEK
# Excerpt: To develop a luciferase reporter protein whose activity can be activated by ERK inhibition, it was hypothesized that NanoLuc luciferase catalytic activity could be modulated through large ERK-induced conformational changes. Created and tested were fusion proteins of various topologies (FIG. 2a) comprising the NanoLuc NanoBiT fragments, an ERK substrate peptide from Cdc25C^7, and a proline-directed WW phospho-binding domain (WW)^8 from Pin1. In particular, an arrangement was postulated in which binding of phosphorylated substrate (pSub) to WW would force the SmBiT fragment to adopt an unfavorable conformation for LgBiT complementation, would show low luminescence with active ERK and high luminescence with inhibited ERK (FIG. 2b). The KiMBI candidates were screened by co-transfection into HEK293A cells with a constitutively active MEK (caMEK) followed by application of the ERK inhibitor Vx-Ile.
# (§1) In vitro cell-based bioluminescent assay. Cells were seeded into 96-well Lumitrac plate (Greiner Bio-One) at a density of 1.5-2×10^4 cells per well. After 24 h, cells were transiently transfected with KiMBI-expressing plasmids (5-10 ng per well) with or without caMEK-expressing plasmids (50 ng per well, empty pcDNA3.1 as negative control to keep total transfected DNA amount consistent) using lipofectamine 3000 (Invitrogen) following manufacturer's instructions. For the stable polyclonal KiMBI-expressing cell liens, this lipofection step was skipped. At 24 h after transfection, the cells were treated with drugs at desired concentration in opti-MEM reduced-serum medium (Thermo Fisher) for 1-1.5 hours. Then, for assaying luminescence, Nano-Glo live cell assay system (Promega) was used following manufacturer's instructions. Time-lapse live luminescence was recorded on Safire-2 microplate reader (Tecan) with 100 ms integration and one read per min for 20 min. Luminescence spectrum was measured on a Varioskan LUX multimode microplate reader (Thermo Scientific) using the spectral scanning protocol with 1 s integration for each wavelength at 400-680 nm (1 nm per data point).
# ERK [2] = experiment: U87-EGFRvIII stable tKiMBI/tKiMBImut reporter cell lines, bioluminescence; format: cell-based, human; conditions: for induction of bioluminescence: tKiMBI-expressing cells; for effect on bioluminescence of control cell lines: tKiMBImut-expressing cells
# Description: Next, the ability of KiMBIs to report ERK kinase inhibition in human tumor xenografts in mice was tested. U87-EGFRvIII cells were transduced with lentiviruses expressing tKiMBI-T2A-AkaLuc, where AkaLuc allows kinase-independent tracking of tumor location and size (FIG. 6a). Transduced cells were sorted by fluorescence-activated cell sorting (FACS) and selected by antibiotics to generate polyclonal stable cell lines.
# Generation of KiMBI-expressing stable tumor cell lines. U87-EGFRvIII and LN229 cells were lentiviral transduced with pLL3.7m-CMV-KiMBI-T2A-AkaLuc-P2A-Blasticidin. Then, 72 h after transfection, cells were dissociated with trypsin and resuspended in DMEM and then changed to PBS. Suspended cells were sorted for the population with medium fluorescence level (20-40%) on a fluorescence-activated cell sorter (FACS), the FACSJazz (BD Biosciences) at Stanford Shared FACS Facility. After cell sorting, the KiMBI-expressing cells were maintained and passaged in corresponding culture medium supplemented with blasticidin (6 μg/mL for both cell lines) to select for stable polyclonal cell lines. Flow cytometry data were analyzed on FlowJo software. The stable KiMBI expression was validated by examination of tdTomato fluorescence in tKiMBI (and its variants) using an EVOS FL Autoimaging system (Thermo Scientific).
# as §1
# ERK [3] = experiment: Imaging of ERK inhibition in intracranially implanted U87-EGFRvIII cells; format: in vivo, mice
# Description: Tested next was whether KiMBI can report ERK inhibition in the brain tumor xenograft model.
# U87-EGFRvIII xenografts are known to disrupt the BBB^16. When the BBB-impermeant GSK1120212 (1 mg/kg i.p.) was administered to the same group of mice, a positive response was also observed, with ˜150% higher tKiMBI signal.
# (§2) General procedures of kinase inhibitor injection and in vivo bioluminescence imaging. […] For KiMBI (NanoLuc-based bioluminescent reporter) imaging, mice were i.p. injected with either 1.3 μmol (0.56 mg) of fluorofurimazine (FFz) or cephalofurimazine (CFz) in 150 μl of injectable formulation containing 6 mg poloxamer-407 (P-407) in Dulbecco Phosphate Buffered Saline (DPBS, without Ca^2+ or Mg^2+, no. 21-031-CV, Corning) for imaging. Immediately after luciferin administration, mice were anesthetized using isoflurane, and images were acquired in the Ami HT optical imaging system every 1 min for 10 min, with an air flow containing 1-2% isoflurane for stable anesthesia. Imager settings were: emission filter, open; field of view, 25 cm; f-stop 1.2; binning, 2×2 and exposure time, 30 s. Images were analyzed in Aura 4.0 in vivo imaging software. The above-mentioned conditions and settings were for most in vivo studies unless otherwise stated in the specific procedures.
# Molecular imaging of ERK inhibition in intracranially implanted cells. The stereotaxic injection on the 7- to 9-week-old male J:NU mice were similar to the afore-mentioned AAV infection surgery. A Hamilton syringe with a 26-gauge needle was inserted 0.62 mm […] and 1.75 mm lateral to the bregma to a depth of 3.5 mm, and after a 2 min wait the needle was pulled back 0.5 mm to allow space for the cell suspension. Following this, 3×10^4 KiMBI-expressing U87-EGFRvIII or LN-229 stable cells in 1.5 μl of PBS were injected at an injection speed of 0.3 μL/min using the syringe pump. To visualize ERK inhibition in U87-EGFRvIII cell implants, 5 days after cell implantation, tumor-bearing mice were i.p. injected with CFz (0.4 μmol, with 1.8 mg P-407) for imaging. […]
# [4] = previously characterized; cited from earlier work
# ERK [5] = conditions: mouse, in vivo; cited from earlier work
# ERK [6] = experiment: Molecular imaging of ERK inhibition in subcutaneous U87-EGFRvIII tumor model; format: in vivo, mice; conditions: 2 h after injection, FFz imaging
# Description: The ability of tKiMBI to report ERK pathway inhibition in tumors in vivo was assessed. Mice were injected subcutaneously with 10^6 tKiMBI-expressing cells on one side and, to control for differences in substrate delivery between injections, tKiMBImut-expressing reporter cells on the other side (FIG. 7a).
# Molecular imaging of ERK inhibition in subcutaneously implanted cells. […]
# ERK [7] = experiment: Molecular imaging of ERK inhibition in KiMBI-encoded AAV infected mouse brain; format: in vivo
# Description: Using CFz, tested was whether tKiMBI could report the BBB-permeance of ERK pathway inhibitors in living mice. tKiMBI-T2A-caMEK or the negative control tKiMBImut-T2A-caMEK were expressed in mouse striatum by AAV transduction (FIG. 9a).
# as §2
# Molecular imaging of ERK inhibition in KIMBI-encoded AAV infected mouse brain. […]
# ERK [8] = experiment: Imaging of ERK inhibition in intracranially implanted LN-229 cells; format: in vivo, mice; conditions: one week after implantation
# Description: 3×10^4 LN-229 cells expressing tKiMBI or tKiMBImut were implanted into the striatum, and KiMBI assays were performed one week later.
# Molecular imaging of ERK inhibition in intracranially implanted cells. The stereotaxic injection on the 7- to 9-week-old male J:NU mice were similar to the afore-mentioned AAV infection surgery. A Hamilton syringe with a 26-gauge needle was inserted 0.62 mm dorsal and 1.75 mm lateral to the bregma to a depth of 3.5 mm, and after a 2 min wait the needle was pulled back 0.5 mm to allow space for the cell suspension. […]
# ERK [9] = experiment: Time-lapse imaging of ERK inhibition in intracranially implanted U87-EGFRvIII cells; format: in vivo, mice
# Description: A non-invasive method with the potential for longitudinal studying of drug pharmacokinetics and pharmacodynamics should allow rapid dose and schedule optimization for drug development.
# as §2
# Time-lapse imaging of ERK inhibition in intracranially implanted cells. One week after implantation of 10^5 KiMBI-expressing U87-EGFRvIII stable cells, the tumor-bearing mice were i.p. injected with CFz (0.2 μmol, with 0.8 mg P-407) for the initial imaging to establish the signal baseline before drug administration.
# Akt [10] = experiment: Akt oKiMBI luminescence in HEK293A (caAkt), U87-EGFRvIII and LNCaP cells; format: cell-based, human; conditions: all cell lines: HEK293A (caAkt), U87-EGFRvIII, LNCaP
# Akt [11] = experiment: U87-EGFRvIII cells stably expressing Akt oKiMBI or oKiMBImut, luminescence; format: cell-based, human
# Excerpt: To assess Akt inhibition in human tumor xenografts in mice, either Akt oKiMBI- or oKiMBImut-expressing U87-EGFRvIII stable cell lines were first engineered through lentiviral transduction (FIG. 17a). Fluorescence-activated cell sorting (FACS) was subsequently employed to sort the transduced cells, followed by antibiotics selection to establish polyclonal stable cell lines.
# Akt [12] = experiment: Molecular imaging of Akt inhibition in subcutaneous U87-EGFRvIII tumor model; format: in vivo; conditions: same mice after 2-day interval
# Excerpt: Evaluated next was the capacity of Akt oKiMBI to report Akt inhibition in a subcutaneous tumor model. Engineered U87-EGFRvIII cells that stably express oKiMBI or oKiMBImut were subcutaneously injected at different sites in J:NU mice.
# Akt [13] = experiment: BAR (bioluminescent Akt reporter, FLuc) luminescence in HEK293A (caAkt), U87-EGFRvIII and LNCaP cells; format: cell-based, human; conditions: all tested cell lines
smiles,measurement,setting,value
Cc1cnc(Nc2ccc(F)cc2Cl)nc1-c1c[nH]c(C(=O)N[C@H](CO)c2cccc(Cl)c2)c1 [Vx-11e],increase in luminescence,"ERK [1]; 03 topology KiMBI candidate, 1 μM Vx-11e",~65%
same,induction of bKiMBI luminescence by inhibitor,ERK [1]; ERK blue KiMBI (WW F25A),> 10 fold
"CC(=O)Nc1cccc(-n2c(=O)n(C3CC3)c(=O)c3c(Nc4ccc(I)cc4F)n(C)c(=O)c(C)c32)c1 [GSK1120212, trametinib]",induction of bioluminescence,ERK [2],~4 fold
same,higher tKiMBI signal,"ERK [3]; 1 mg/kg i.p., same group of mice",~150%
same,BBB permeation,[4],poor BBB permeation
same,drug level and ERK inhibition in brains of drug-injected mice,ERK [5],no detectable GSK1120212 or ERK inhibition
"O=C(NOC[C@H](O)CO)c1ccc(F)c(F)c1Nc1ccc(I)cc1F [PD0325901, mirdametinib]",induction of tKiMBI signal,"ERK [1]; AAV plasmids caMEK-T2A-tKiMBI (A1) and tKiMBI-T2A-caMEK (A2), both",approximately 4 fold
same,induction of bioluminescence,ERK [2],~4 fold
same,effect on bioluminescence of control cell lines,ERK [2],slightly reduced bioluminescence
same,increase in brightness of tKiMBI tumor,ERK [6]; tKiMBI,100%
same,increase in brightness of tKiMBImut tumor,ERK [6]; tKiMBImut control,~10%
same,bioluminescence of tKiMBI in brain,"ERK [7]; 25 mg/kg, CFz imaging, tKiMBI-T2A-caMEK",robustly induced bioluminescence
same,able to induce a signal increase in KiMBI,ERK [7]; AAV-infected mice brain (discussion),able to induce a signal increase
same,increase in tKiMBI signal,"ERK [3]; after PD0325901 administration, CFz",~200%
same,decrease in tKiMBImut signal,"ERK [3]; after PD0325901 administration, control reporter",~10%
same,increase in signal from tKiMBI,ERK [8],> 3 fold
same,return of signal to baseline,"ERK [9]; 25 mg/kg i.p., tKiMBI",backed to baseline on the second day
same,time for bioluminescence signal to rise to plateau,"ERK [9]; 25 mg/kg i.p., tKiMBI",≤ 1 h
same,time post-treatment at which signal declined to about half,"ERK [9]; 25 mg/kg i.p., tKiMBI",around 8 hrs
same,time until which signal remained high,"ERK [9]; 25 mg/kg i.p., tKiMBI",about 4 h
same,signal increase in control cells,"ERK [9]; after 24 h, tKiMBImut control cells",~1.4 fold
same,BBB permeation,[4],BBB-permeant
O=C(Nc1ccc2[nH]nc(-c3ccncc3)c2c1)[C@@H]1CCN(CC(=O)N2CCN(c3ccc(-c4ncccn4)cc3)CC2)C1 [SCH772984],induction of bioluminescence,ERK [2],~4 fold
same,effect on bioluminescence of control cell lines,ERK [2],slightly reduced bioluminescence
NC(=O)c1cccc2c(N[C@H](CN3CCC3)c3ccc(Cl)c(C(F)(F)F)c3)ncnc12 [M2698],oKiMBI luminescence response to Akt inhibitor,Akt [10],significant increase in luminescence
same,signal response of oKiMBImut cells to drug treatment,Akt [11]; cells expressing oKiMBImut,did not exhibit any signal increase
same,increase in luminescent signals,Akt [11]; cells stably expressing Akt oKiMBI,~2.5 fold
same,inhibition of the Akt pathway reported by Akt oKiMBI,Akt [12],effective inhibition of the Akt pathway
same,BAR and BARmut response to Akt inhibitor,Akt [13],miniscule positive responses

# — patent US20260077065A1, “Compositions and Methods for Assessing Kinase Activity” (The Board of Trustees of the Leland Stanford Junior …, priority 2022, published 2026)
